Test results from patent US20240122978A1, “RETROVIRAL VECTOR FOR UNIVERAL RECEPTOR THERAPY” (Umoja BioPharma, Inc., priority 2019, published 2024).
Entries after “also recorded” stand apart in the source; their conditions may differ.

System: CAR-expressing T cells
Experiment: Assessment of CAR expression and activation by flow cytometry
Assay type: cell-based
Conditions: FITC coated beads or plate bound FITC; FIGS. 2A-2F
Experimental: Cells were transferred to individual wells of a 96-well V-bottom plate, the plate was spun at 400×g for 5 min, cells were washed with 200 μL PBS and spun again at 400×g for 5 min. Cells were incubated for 10 min at room temperature in 50 μL/well Zombie NIR Fixable Viability Dye (diluted 1:3000 in PBS). Cells were then washed with […] buffer (1×PBS+2% FBS) and the plate was spun at 400×g for 5 min. Next, 50 μL/well of surface stain in FACS buffer were added to the cells and incubated for 45 min at 4° C.
Cells were washed with 150 μL FACS buffer and the plate was spun at 400×g for 5 min. Cells were then fixed with 100 μL/well of BD Cytofix/Cytoperm buffer for 20 min at 4° C. Cells were then washed with 100 μL BD Perm/Wash diluted 10-fold in water and the plate was spun at 400×g for 5 min. Cells were washed again with 200 μL BD Perm/Wash diluted 10-fold in water and the plate was spun again at 400×g for 5 min. 50 μL/well of intracellular stain in 1×BD Perm/Wash was added to the cells and incubated for 30 min at 4° C. Cells were washed with 150 μL, FACS buffer, the plate was spun at 400×g for 5 min and the cells were resuspended in 200 μL FACS buffer for analysis using a Beckman Coulter CytoFLEX S cytometer. As depicted in FIGS. 2A-2F, CAR-expressing T cells expand in the presence of the antigen FITC and this expansion is enhanced with rapamycin. […]

## fluorescein isothiocyanate [FITC]
  expansion/enrichment of CAR-expressing T cells in the presence of the antigen FITC: enriched; also recorded: enhanced expansion and activation; also recorded: expand
